Results taken from patent US12590130B2, “Bipartite molecules and uses thereof in treating diseases associated with abnormal protein aggregates” (ACADEMIA SINICA, priority 2014, dated 2026).
Square brackets hold non-standard residues; d marks the D form. Ends that are not written are not given here. Peptide text beside a SMILES is read from it. * marks the point of attachment. Cbz = O=C(OCc1ccccc1)*

How the values were obtained:
[1] = Solubility of therapeutic peptides; type: physicochemical
Procedure: (§1) In this study, the rational design was tested for HD. Several bipartite therapeutic peptides containing 8 consecutive arginines (8R) attached to a stretch of consecutive glutamines (polyQ) were synthesized and their biological activity of decreasing the aggregation propensity of the mHtt protein was investigated. The length of the polyQ of these bipartite peptides was 5 (8R5Q), 10 (8R10Q), 15 (8R15Q) or 20 (8R20Q) (Table 2).

[2] = tested on: 109QmHtt aggregates; assay: TIRF microscopy of mHtt aggregates in Neuro2a cells; type: cell-based; conditions: Neuro2a cells expressing 109QmHtt
Procedure: FIG. 3. Diagrams showing the co-localization of tested bipartite peptides with the 109QmHtt aggregates. Panel A: Structure of TAMRA-labeled 8R10Q used in this study. Panel B: Epifluorescence micrographs of Neuro2a cells expressing 109QmHtt treated with TAMRA-8R10Q (8R10Q) at various time points. Note the co-localization of 8R10Q and 109QmHttGFP aggregates (GFP) from 8-24 hours (arrows). Scale bar: 10 μm. Panel C: TIRF micrographs of the Neuro2a expressing 109QmHtt treated with water or peptides as indicated at various time points. Note the decrease in aggregate size in 8R10Q and 8R15Q-treated cells. Panel D: Quantitation of the size of individual aggregates in Neuro2a at 8 hours (left) and 24 hours (right) after peptide treatment. […] Panel E: Quantitation of the number of aggregates in 20 Neuro2a cells at 12 hours (left) and 24 hours (right) after peptide treatment. Both the 8R10Q and 8R15Q increased the number of aggregates. Statistics performed with one way ANOVA. **p<0.01; ***p<0.001.
To probe into the details of the effect of peptide on the mHtt aggregates, the parameters of the mHtt aggregates were visualized and measured using the Total Internal Reflection Fluorescence (TIRF) microscopy. […] The number of aggregates in 20 cells was also calculated. 8R10Q and 8R15Q increased the number of the aggregates by 4-5 fold (FIG. 3, panel E).

[3] = tested on: Neuro2a cells expressing 109QmHtt; assay: Retinoic acid-induced neurite outgrowth; type: cell-based, mouse; conditions: 109QmHtt cells; vs water or scrambled control
Procedure: FIG. 5. Therapeutic effect of 8R10Q and 8R15Q in 109QmHtt-expressing cells. Panel A: Cell viability assay by MTT in Neuro2a cells expressing 25QHtt (left) or 109QmHtt (right) treated with H2O2 at 50 μM and the indicated peptide. Panel B: Cell growth curve of Neuro2a cells expressing 25QHtt or 109QmHtt treated with indicated peptide. The cells in right subpanel were further treated with H2O2 at 12.5 μM 16 hours after transfection. 109QmHtt cells growth was slower than that of the 25QHtt cells. 8R10Q treatment rescued the slow growth of Neuro2a cells by 109QmHtt with or without H2O2. Panel C: Micrographs of the phase contrast and fluorescent images of retinoic acid-differentiated Neu2a cells expressing GFP-25QHtt or GFP-109QmHtt (GFP) treated with the indicated peptide. Note the neurites of the differentiated cells. Panel D: Quantitation of the percentage of differentiated cells with neurites. Fewer 109QmHtt-expressing cells had neurites vs. 25QHtt-expressing cells. […] The experiments were conducted in triplicate and repeated twice. Statistical analysis was performed with one way ANOVA, *p<0.05; **p<0.01; ***p<0.001, ns: not significant.
Retinoic acid (RA) induced the differentiation of Neuro2a cells with neurite outgrowth. 109QmHtt decreased the number of cells bearing RA-induced neurites relative to 25QHtt (FIG. 5, panels C and D).

[4] = Stability of therapeutic peptides determined by HPLC; type: physicochemical; conditions: day 0 to day 28
Procedure: FIG. 2. Stability of the therapeutic peptides determined by HPLC. A: diagrams showing the retention time of the tested peptides from day 0 to day 28. B: charts showing the amount of the tested peptides at day 0 and day 28.
as §1

[5] = tested on: 109QmHtt; assay: Filter trap assay of aggregated 109QmHtt in Neuro2a cells; type: cell-based
Procedure: (§2) FIG. 4. Testing the ability of therapeutic peptides to decrease mHtt aggregation in Neuro2a cells overexpressing mHtt. Panel A: Filter trap assays and corresponding quantitation of cells (panel B) treated as indicated at 8 hours (T1), 24 hours (T2), or both (T1+2) after transfection with the 109QmHtt construct. […] Panel C: Western blots and quantitation (panel D) of RIPA-soluble (sol) and -insoluble (ins) fractions of Neuro2a cells overexpressing 25QHtt or 109QmHtt and treated as indicated. […] Panel E: Western blot of the 109QmHtt in cells treated as indicated. Note that MG132 blocked the effect of 8R10Q peptide with respect to decreasing insoluble 109QmHtt. Panel F: Quantitation of ratio of 109QmHtt in cells treated MG132 (+) over DMSO (−) in relationship to peptides. Statistical analysis conducted with one way ANOVA, *<0.05, **<0.01, ***<0.001, ns: not significant.
Whether the peptides could modulate the aggregation propensity of mHtt was next investigated.

[6] = tested on: Mouse N2a neuroblastoma cells
Procedure: Cell viability measurement by MTT assays. […] Each bar was generated by a triplicate experiment; the study was repeated 3 times. The statistics were performed with one way ANOVA corrected with Fisher's LSD test. ***: p<0.001; ****p<0.0001; ns, not significant.
Cell viability assay. The viability of mouse N2a cells incubated with the indicated peptide(s) was measured using the MTT assay.
Mouse N2a neuroblastoma cells (ATCC) were cultured in Dulbecco's modified Eagle's medium (DMEM) (HyClone, USA) supplemented with 10% fetal bovine serum (FBS; HyClone, USA) in 5% CO2 at 37° C. For the cell viability assay, the cells were harvested, suspended at a density of 350,000 cells/mL in DMEM, and 100 μL of each sample was plated in each well of a 96-well CellBIND polystyrene microplate (Corning, USA). […] Cell viability was determined using the MTT (3-[4,5-dimethylthiazol-2-yl]-2,5-diphenyltetrazolium bromide) toxicity assay. […] Ten microliters of 5 mg/mL of MTT in PBS was added to each well, and then, after incubation for 4 h, the medium was removed and the MTT crystals were dissolved in 100 μL of 90% isopropanol, 0.5% SDS, and 40 mM HCl, and their absorption at 570 nm was measured. Cell viability was calculated by dividing the absorbance of the wells containing peptide samples by that of the wells without any added peptide. […]

[7] = tested on: 109QmHtt; assay: Western blot of RIPA-soluble and -insoluble fractions of Neuro2a lysates; type: cell-based; conditions: all groups
Procedure: as §2
For further characterization, Neuro2a lysates were separated into the RIPA-soluble (sol) and insoluble (ins) fractions ([…]). 8R10Q peptide decreased the level of mHtt in both the soluble and insoluble fractions as compared with water, 8R, or the scrambled (s8R10Q) control (FIG. 4, panel D). […]

Compound | Solubility (DMEM/10% FBS) [1] | average size of the aggregates [2] [μm^2] | solubility in water or culture medium [1] | also measured
H-RRRRRRRRWD-NH2 [Peptide 8R, NH2-(R)8-W-D-CONH2, reference compound] | Soluble | 3.3 |  | RA-induced neurite outgrowth [3]: rescued the cells from this toxicity to some extent
TAMRA-NH-RQQRRQQDQRQWQRQRQQRR-CONH2 ({TAMRA}-RQQRRQQDQRQWQRQRQQRR-NH2) [TAMRA-s8R10Q, reference compound] | Soluble |  |  | 
H-RRRRRRRRWDQQQQQ-NH2 [Peptide 8R5Q, NH2-(R)8-W-D-(Q)5-CONH2] | Soluble |  | highly soluble | 
H-RRRRRRRRWDQQQQQQQQQQQQQQQ-NH2 [Peptide 8R15Q, NH2-(R)8-W-D-(Q)15-CONH2] | aggregated | 0.2 | partially soluble | change in retention time and amount during HPLC analysis [4]: time-dependent decrease in the retention time and amount; aggregated 109QmHtt by filter trap assay ([5]; 20 μM peptide added at 8 hours (T1) or 8 plus 24 hours (T1+T2) after transfection, vs water or 8R): significantly reduced; aggregated 109QmHtt by filter trap assay ([5]; peptide added at 24 hours alone): no obvious effects
RRRRRRRRGSNKGAIIGLM-NH2 [R8-Aβ(25-35)] |  |  |  | viability of Neuro2a cells treated with peptide alone [6]: no detectable toxicity
CC(C)C[C@@H](C=O)NC(=O)[C@H](CC(C)C)NC(=O)[C@H](CC(C)C)NC(=O)OCc1ccccc1 [MG132, reference compound] (Cbz-Leu-Leu-Leu-aldehyde) |  |  |  | level of mHtt after MG132 treatment [7]: increased
H-RQQRRQQDQRQWQRQRQQRR-NH2 [s8R10Q, reference compound] | Soluble | 1.7 |  | 
TAMRA-NH-(R)8-W-D-CONH2 [TAMRA-8RWD, reference compound] | Soluble |  |  | 
CC[C@H](C)[C@H](NC(=O)[C@H](C)NC(=O)CNC(=O)[C@H](CCCCN)NC(=O)[C@H](CC(N)=O)NC(=O)[C@H](CO)NC(=O)CNC(=O)[C@@H](CCCNC(=N)N)NC(=O)[C@@H](CCCNC(=N)N)NC(=O)[C@@H](CCCNC(=N)N)NC(=O)[C@@H](CCCNC(=N)N)NC(=O)[C@@H](CCCNC(=N)N)NC(=O)[C@@H](CCCNC(=N)N)NC(=O)[C@@H](CCCNC(=N)N)NC(=O)[C@H](N)CCCNC(=N)N)C(=O)N[C@H](C(=O)NCC(=O)N[C@@H](CC(C)C)C(=O)N[C@@H](CCSC)C(N)=O)[C@@H](C)CC [^DR8-Aβ(25-35)] (H-[dR][dR][dR][dR][dR][dR][dR][dR]GSNKGAIIGLM-NH2; N-terminus assumed) |  |  |  | viability of Neuro2a cells treated with peptide alone [6]: no detectable toxicity
H-RRRRRRRRWDQQQQQQQQQQQQQQQQQQQQ-NH2 [Peptide 8R20Q, NH2-(R)8-W-D-(Q)20-CONH2] | aggregated |  | insoluble | change in retention time and amount during HPLC analysis [4]: time-dependent decrease in the retention time and amount
